Results taken from patent US6048882A, “Prophylactic and therapeutic agent for hepatic diseases” (Nisshin Flour Milling Co., Ltd., priority 1995, dated 2000).
Counter-ions that a name gives are not always drawn. Like-named read-outs stand apart in the source and are kept apart here.

Columns and labels:
[1] = tested on: experimental hepatopathy models prepared by D-galactosamine administration; experiment: Inhibitory action on hepatopathy in hepatopathy models by D-galactosamine (serum GPT and GOT); format: in vivo, Wistar strain male mice; conditions: iv, 24 h, 2 hours after D-galactosamine; for inhibition in vivo at 0.03 mg/kg / inhibition in vivo at 0.01 mg/kg: lipid emulsion, i.v.; for inhibition in vivo at 0.03 mg/kg: dose 30 μg/kg; for inhibition in vivo at 3 mg/kg: dissolved in distilled water, dose 3000 μg/kg; for inhibition in vivo at 0.01 mg/kg: dose 10 μg/kg
Protocol: In these tests, GPT (glutamic-pyruvic transaminase) and GOT (glutamic-oxaloacetic transaminase) were determined using kits for the determination of GPT and GOT upon the method by U. Lippi et al., Iatrozyme TA-Lq (available from Iatron Laboratories Inc.), wherein the NADH formed when enzymes act upon substrates can reduce nitrotetrazolium blue (NTB) via 1-methoxy-5-methylphenazinium methylsulfate (1-methoxy PMS) to form formazan, which is then subjected to colorimetric analysis at a wavelength of 560 nm.
Inhibitory action of lipid emulsions containing the present isoprenylamine derivatives was evaluated by inhibition rates of GPT and GOT in experimental hepatopathy models prepared by D-galactosamine administration.
The experimental hepatopathy model was prepared by intraperitoneal administration of D-galactosamine at 400 mg/kg to Wistar strain male […] weighing about 170 g. The present isoprenylamine derivative was formulated to a lipid emulsion according to the method described in Pharmaceutical Example 8, and was intravenously administered at a dose of 10-30 μg/kg 2 hours after the administration of D-galactosamine.
24 hours after the D-galactosamine administration, blood samples were collected form animals under ether anesthesia and centrifuged. Then, serum GPT and GOT were determined and the respective inhibition rates were calculated on the bases of the serum GPT and GOT values obtained when the present isoprenylamine derivatives were not administered being defined as 100, respectively.
For comparison, glycyrrhizin ammonium (Tokyo Kasei Co.) dissolved in distilled water was administered in a similar manner to that for the isoprenylamine derivatives, blood sampling and determination were conducted and the serum GPT and GOT inhibition rates were calculated.

[2] = tested on: experimental hepatopathy models prepared by administering carbon tetrachloride; experiment: Inhibitory action on hepatopathy in hepatopathy models by carbon tetrachloride (lipid emulsion; serum GPT and GOT); format: in vivo, ddY strain male mice; conditions: Mus musculus, iv, 20 h, i.v., one hour before carbon tetrachloride; for inhibition in vivo at 0.001 mg/kg: dose 1 μg/kg; for inhibition in vivo at 0.01 mg/kg: dose 10 μg/kg; for inhibition in vivo at 0.0001 mg/kg: dose 0.1 μg/kg
Protocol: Carbon tetrachloride was diluted with olive oil to a concentration of 0.5% when administered. The present isoprenylamine derivatives were formulated into the lipid emulsions according to the method described in Pharmaceutical Example 8 and intravenously administered at a dose of 0.1-10 μg/kg one hour before the administration of carbon tetrachloride. 20 hours after the administration of carbon tetrachloride, blood samples were collected from animals under ether anesthesia and centrifuged. Then, serum GPT and GOT were determined and the respective inhibition rates were calculated on the bases of the serum GPT and GOT values obtained when the present isoprenylamine derivative was not administered being defined as 100, respectively.

Compound | inhibition in vivo at 0.03 mg/kg ([1]; read-out: GOT inhibition) [%] | inhibition in vivo at 0.03 mg/kg ([1]; read-out: GPT inhibition) [%] | further results
CC(C)=CCC/C(C)=C/CC/C(C)=C/CC/C(C)=C/CC/C(C)=C/CC/C(C)=C/CC/C(C)=C/CC/C(C)=C/CC/C(C)=C/CNCc1ccc(Cl)cc1 [Compound 9, N-solanesyl-4-chlorobenzylamine hydrochloride] | 47 | 53 | –
CC(C)=CCC/C(C)=C/CC/C(C)=C/CC/C(C)=C/CC/C(C)=C/CC/C(C)=C/CC/C(C)=C/CC/C(C)=C/CC/C(C)=C/CNCc1ccco1 [Compound 24, N-solanesyl-2-furfurylamine hydrochloride] | 30 | 25 | –
CC(C)=CCC/C(C)=C/CC/C(C)=C/CC/C(C)=C/CC/C(C)=C/CC/C(C)=C/CC/C(C)=C/CC/C(C)=C/CC/C(C)=C/CNCc1ccc(O)c(O)c1 [Compound 11, N-solanesyl-3,4-dihydroxybenzylamine hydrochloride] | 41 | 55 | –
COc1c(C)c(CNC/C=C(\C)CC/C=C(\C)CC/C=C(\C)CC/C=C(\C)CC/C=C(\C)CC/C=C(\C)CC/C=C(\C)CC/C=C(\C)CCC=C(C)C)c(OC)c(OC)c1OC [Compound 14, N-solanesyl-2,3,4,5-tetramethoxy-6-methylbenzylamine hydrochloride] | 55 | 64 | –
CC(C)=CCC/C(C)=C/CC/C(C)=C/CC/C(C)=C/CC/C(C)=C/CC/C(C)=C/CC/C(C)=C/CC/C(C)=C/CC/C(C)=C/CC/C(C)=C/CC/C(C)=C/CNCc1ccc2c(c1)OCO2 [Compound 21, N-undecaprenylpiperonylamine hydrochloride] | – | – | inhibition in vivo at 0.001 mg/kg ([2]; read-out: GOT inhibition): 38%; inhibition in vivo at 0.001 mg/kg ([2]; read-out: GPT inhibition): 33%
CC(C)=CCC/C(C)=C/CC/C(C)=C/CC/C(C)=C/CC/C(C)=C/CC/C(C)=C/CC/C(C)=C/CC/C(C)=C/CC/C(C)=C/CNCc1cccnc1 [Compound 26, N-solanesyl-3-pyridylmethylamine dihydrochloride] | 40 | 35 | –
CC1(C)[C@@H](O[C@H]2O[C@H](C(=O)O)[C@@H](O)[C@H](O)[C@H]2O[C@@H]2O[C@H](C(=O)O)[C@@H](O)[C@H](O)[C@H]2O)CC[C@]2(C)[C@H]3C(=O)C=C4[C@@H]5C[C@@](C)(C(=O)O)CC[C@]5(C)CC[C@@]4(C)[C@]3(C)CC[C@@H]12 [Glycyrrhizin ammonium, glycyrrhizin ammonium, reference compound] | – | – | inhibition in vivo at 3 mg/kg ([1]; read-out: GOT inhibition): 22%; inhibition in vivo at 3 mg/kg ([1]; read-out: GPT inhibition): 25%
CC(C)=CCC/C(C)=C/CC/C(C)=C/CC/C(C)=C/CC/C(C)=C/CC/C(C)=C/CC/C(C)=C/CC/C(C)=C/CC/C(C)=C/CNCc1ccc(O)cc1 [Compound 8, N-solanesyl-4-hydroxybenzylamine hydrochloride] | – | – | inhibition in vivo at 0.01 mg/kg ([2]; read-out: GOT inhibition): 25%; inhibition in vivo at 0.01 mg/kg ([2]; read-out: GPT inhibition): 22%
CC(C)=CCC/C(C)=C/CC/C(C)=C/CC/C(C)=C/CC/C(C)=C/CC/C(C)=C/CC/C(C)=C/CC/C(C)=C/CC/C(C)=C/CNc1ccc2c(c1)OCO2 [Compound 16, N-solanesyl-(3,4-methylenedioxy)aniline hydrochloride] | 48 | 43 | –
CC(C)=CCC/C(C)=C/CC/C(C)=C/CC/C(C)=C/CNCc1ccc2c(c1)OCO2 [Compound 1, N-geranylgeranylpiperonylamine hydrochloride] | – | – | inhibition in vivo at 0.001 mg/kg ([2]; read-out: GOT inhibition): 13%; inhibition in vivo at 0.001 mg/kg ([2]; read-out: GPT inhibition): 21%
CC(C)=CCC/C(C)=C/CC/C(C)=C/CC/C(C)=C/CC/C(C)=C/CC/C(C)=C/CC/C(C)=C/CC/C(C)=C/CC/C(C)=C/CNCc1ccc(C)cc1 [Compound 10, N-solanesyl-4-methylbenzylamine hydrochloride] | 54 | 63 | –
COc1cc(CNC/C=C(\C)CC/C=C(\C)CC/C=C(\C)CC/C=C(\C)CC/C=C(\C)CC/C=C(\C)CC/C=C(\C)CC/C=C(\C)CCC=C(C)C)ccc1O [Compound 12, N-solanesyl-4-hydroxy-3-methoxybenzylamine hydrochloride] | 42 | 53 | –
CC(C)=CCC/C(C)=C/CC/C(C)=C/CC/C(C)=C/CC/C(C)=C/CC/C(C)=C/CC/C(C)=C/CC/C(C)=C/CNCc1ccc2c(c1)OCO2 [Compound 5, N-farnesylfarnesylgeranylpiperonylamine hydrochloride] | – | – | inhibition in vivo at 0.01 mg/kg ([1]; read-out: GOT inhibition): 29%; inhibition in vivo at 0.01 mg/kg ([1]; read-out: GPT inhibition): 27%
CC(C)=CCC/C(C)=C/CC/C(C)=C/CC/C(C)=C/CC/C(C)=C/CC/C(C)=C/CC/C(C)=C/CC/C(C)=C/CC/C(C)=C/CNCc1ccccc1 [Compound 7, N-solanesylbenzylamine hydrochloride] | – | – | inhibition in vivo at 0.001 mg/kg ([2]; read-out: GOT inhibition): 42%; inhibition in vivo at 0.001 mg/kg ([2]; read-out: GPT inhibition): 42%
CC(C)=CCC/C(C)=C/CC/C(C)=C/CC/C(C)=C/CC/C(C)=C/CC/C(C)=C/CC/C(C)=C/CC/C(C)=C/CC/C(C)=C/CNCCCc1ccc2c(c1)OCO2 [Compound 18, N-solanesyl-3-(3,4-methylenedioxyphenyl)propylamine hydrochloride] | 22 | 20 | –
CC(C)=CCC/C(C)=C/CC/C(C)=C/CC/C(C)=C/CC/C(C)=C/CC/C(C)=C/CC/C(C)=C/CC/C(C)=C/CC/C(C)=C/CN(C)Cc1ccc2c(c1)OCO2 [Compound 19, N-methyl-N-solanesylpiperonylamine] | – | – | inhibition in vivo at 0.001 mg/kg ([2]; read-out: GOT inhibition): 43%; inhibition in vivo at 0.001 mg/kg ([2]; read-out: GPT inhibition): 31%
CC(C)=CCC/C(C)=C/CC/C(C)=C/CC/C(C)=C/CC/C(C)=C/CC/C(C)=C/CC/C(C)=C/CC/C(C)=C/CC/C(C)=C/CNCCc1ccc2c(c1)OCO2 [Compound 17, N-Solanesyl-2-(3,4-methylenedioxyphenyl)ethylamine Hydrochloride] | 24 | 23 | –
CC(C)=CCC/C(C)=C/CC/C(C)=C/CC/C(C)=C/CC/C(C)=C/CC/C(C)=C/CNCc1ccc2c(c1)OCO2 [Compound 3, N-farnesylfarnesylpiperonylamine hydrochloride] | – | – | inhibition in vivo at 0.01 mg/kg ([1]; read-out: GOT inhibition): 21%; inhibition in vivo at 0.01 mg/kg ([1]; read-out: GPT inhibition): 20%
CC(C)=CCC/C(C)=C/CC/C(C)=C/CC/C(C)=C/CC/C(C)=C/CC/C(C)=C/CC/C(C)=C/CC/C(C)=C/CC/C(C)=C/CNCc1cccs1 [Compound 25, N-solanesyl-2-thienylamine hydrochloride] | 32 | 30 | –
CC(C)=CCC/C(C)=C/CC/C(C)=C/CC/C(C)=C/CC/C(C)=C/CNCc1ccc2c(c1)OCO2 [Compound 2, N-farnesylgeranylpiperonylamine hydrochloride] | – | – | inhibition in vivo at 0.01 mg/kg ([1]; read-out: GOT inhibition): 23%; inhibition in vivo at 0.01 mg/kg ([1]; read-out: GPT inhibition): 23%
CC(C)=CCC/C(C)=C/CC/C(C)=C/CC/C(C)=C/CC/C(C)=C/CC/C(C)=C/CC/C(C)=C/CC/C(C)=C/CC/C(C)=C/CNCc1ccc2c(c1)OCO2 [Compound 15, N-solanesylpiperonylamine malate] | – | – | inhibition in vivo at 0.01 mg/kg ([2]; read-out: GOT inhibition): 18%; inhibition in vivo at 0.01 mg/kg ([2]; read-out: GPT inhibition): 24%
COc1ccc(CNC/C=C(\C)CC/C=C(\C)CC/C=C(\C)CC/C=C(\C)CC/C=C(\C)CC/C=C(\C)CC/C=C(\C)CC/C=C(\C)CCC=C(C)C)cc1OC [Compound 13, N-solanesylveratrylamine hydrochloride] | – | – | inhibition in vivo at 0.0001 mg/kg ([2]; read-out: GOT inhibition): 14%; inhibition in vivo at 0.0001 mg/kg ([2]; read-out: GPT inhibition): 21%
